Experimental data from US9611286B2, “Ruthenium carbon monoxide releasing molecules and uses thereof” (Alfama, Inc., priority 2011, dated 2017).

What was measured:
[1] = Determination of CO in tissues; format: in vivo; details: one hour after i.v. administration, non-infected mice
Description: It is hypothesized that Compound 1 promotes/increases erythrophagocytosis.
CO was quantified in different tissues as previously described (see, e.g., Vreman et al., Anal Biochem (2005) 341:280-289). Briefly, CO was liberated as gas in a closed vial by adding 25 μL of water and 5 μL of sulfosalicylic acid (SSA, 30% [wt/vol]) to 30 μL of diluted sample after being homogenized. The vials were incubated on ice for at least 10 min before being analyzed. The gas in the headspace of the vials was analyzed quantitatively with a gas chromatograph (GC) equipped with a reducing-compound photometry detector (RCP detector) (Peak Laboratories, Mountain View, Calif.), which allows to quantify CO in gas at concentrations as low as 1-2 parts per billion (ppb). The amount of CO was calculated using a calibration curve prepared from CO standards. Briefly, blood was collected from the tail of the mice to capillary tubes (VWR) with heparin (100 i.u./ml in PBS 1×; LEO Pharma Inc.), transferred into AVOXimeter 4000 cuvettes (ITC) where the levels of carboxyhemoglobin (COHb), oxyhemoglobin (O2Hb) and methemoglobin (MetHb) were measured in a portable AVOXimeter 4000 CO-oximeter (ITC). Results are shown as mean percentage of total hemoglobin species in circulation.

P. berghei ANKA GFP = format: in vivo, C57BL/6 mice; details: treated twice daily days 2-3; observed from about day 5 to day 8 of infection
Description: It has previously been shown that administration of CO by inhalation protects P. berghei ANKA infected C57BL/6 mice from developing ECM (see, e.g., Pamplona et al. Nat Med (2007) 13:703-710). The inventors questioned whether CO-RMs could mimic the protection conferred by CO inhalation in P. berghei ANKA infection. To this end, a known ruthenium CORM, Ru(CO)3Cl2, also referred to herein as CORM-2, was tested on different schedules of treatment and doses in P. berghei ANKA infected C57BL/6 mice (data not shown).
Red blood cells infected with green fluorescent protein (GFP)-transgenic P. berghei ANKA and P. berghei ANKA was used to infect mice (see, e.g., Franke-Fayard et al. Mol Biochem Parasitol (2004) 137:23-33). Cryopreserved parasites were passed once through C57BL/6 or DBA-2 mice before being used to infect experimental animals. C57BL/6 or DBA-2, 6- to 8-wk-old mice (sex matched in each experiment) were infected by intra-peritoneal (i.p.) injection of 10^6 infected RBCs. The infected mice were monitored daily for clinical symptoms of experimental cerebral malaria (ECM) including hemi- or paraplegia, head deviation, tendency to roll over on stimulation, ataxia and convulsions, or ALI, including dyspnea. Mice showing severe signs of ECM at day 5, 6 or 7 post-infection (p.i.) and ALI between days 7 and 9 were sacrificed. Parasitemia was assessed by flow cytometry for mice infected with GFP-expressing P. berghei ANKA, using tail blood, as previously described (see, e.g., Pamplona et al., Nat Med (2007) 13:703-710). Mean parasitemia is expressed as percentage of infected red blood cells. For mice infected with non-GFP P. berghei parasitemia was assessed daily by microscopic counting of Giemsa-stained thin blood smears. Mean parasitemia is expressed as percentage of infected red blood cells. Survival is expressed as percentage.
In order to evaluate the clinical presentation of experimental cerebral malaria, a classification was used in clinical stages from 0 to 4 (see, e.g., Bienvenu et al., Acta Trop (2008) 106:104-8; Franklin et al., Proc Natl Acad Sci USA (2011) 108:3689-94). Briefly, stage 0 indicates no detectable clinical symptoms, stage 1, ruffled fur; stage 2, ruffled fur and unbalancing; stage 3, limb paralysis and respiratory distress and stage 4, convulsions, coma or death. The mice were clinically classified before and after the treatment to evaluate the clinical recovery.
CORM-2 (Sigma-Aldrich) and Compound 2 were solubilized using 10% dimethyl sulfoxide (DMSO; Sigma-Aldrich) in PBS. CORM-3 and Compound 1 were solubilized in PBS (lx). CORM-2 solution (20 mg/kg of body weight) was administered intravenously (i.v.) according to the chosen schedules. […] As vehicle control, we used a solution of 10% DMSO in PBS administered i.v. The concentrations of CORM-2 used in the present study were based on previous reports (see, e.g., Chen et al. Am. J. Pathol. (2009) 175:422-429; Sun et al., World. J. Gastroenterol. (2008) 14:547-553). Artesunate is presented as a powder of artesunic acid. Artesunate (AS) solution was prepared by dissolving 60 mg of anhydrous artesunic acid in 1 ml of sodium bicarbonate (5%) to form sodium artesunate and then diluted in 5 ml of NaCl (0.9%). An AS solution (i.p.) was administered at 40 mg/Kg/day, as described previously (see, e.g., Bienvenu, Acta Trop (2008) 106:104-108). The AS treatment was started when the infected non-treated mice presented the clinical stage 1 for experimental cerebral malaria.

With `C[SH]([C@@H]1OC(CO)[C@H](O)[C@H](O)C1O)[Ru]([Cl])([Cl])([CH]=O)([CH]=O)[CH]=O` (some centres unmarked) [Compound 1, Tricarbonyldichloro(methylthiogalactopyranoside) Ru(II)] the “levels of CO in organs” value [1] was “higher levels of CO in the liver and spleen” and the effect on parasitemia (P. berghei ANKA GFP) was “small but significant arrest in parasitemia”.
